Data reported in ChEMBL document CHEMBL3351419, “Orally bioavailable 6-chloro-7-methoxy-4(1H)-quinolones efficacious against multiple stages of Plasmodium” (J Med Chem, 2014).
≈ marks a conversion by molar mass, not a printed value.

Legend:
[1] = system: Plasmodium falciparum; assay: Antimalarial activity against multi-drug-resistant Plasmodium falciparum W2 infected in human type A+ erythrocytes assessed as growth inhibition after 72 hrs by SYBR Green I assay; format: functional, organism-based; conditions: W2, 72 h
[2] = system: Plasmodium falciparum; assay: Antimalarial activity against multi-drug-resistant Plasmodium falciparum TM90-C2B infected in human type A+ erythrocytes assessed as growth inhibition after 72 hrs by SYBR Green I assay; format: functional, organism-based
[3] = Resistance index, ratio of EC50 for multi-drug-resistant Plasmodium falciparum TM90-C2B infected in human type A+ erythrocytes to EC50 for multi-drug-resistant Plasmodium falciparum W2 infected in human type A+ erythrocytes; format: functional
[4] = system: J774; assay: Cytotoxicity against mouse J774 cells after 72 hrs by CellTiter 96 assay; format: cell-based; conditions: J774, 72 h
[5] = Cytotoxicity index, ratio of EC50 for mouse J774 cells to EC50 for multi-drug-resistant Plasmodium falciparum TM90-C2B infected in human type A+ erythrocytes; format: toxicity, cell-based; conditions: read-out: Ratio EC50
[6] = Aqueous solubility of the compound at pH 7.4; format: physicochemical; conditions: buffer
[7] = system: Plasmodium berghei; assay: Antimalarial activity against Plasmodium berghei ANKA expressing GFP infected in Balb/c mouse assessed as inhibition of parasitemia at 10 mg/kg, po qd administered as single dose on day 3 to 5 of exposure measured on day 6 post exposure by in vivo thomson test relative to control; format: functional
[8] = system: Plasmodium berghei; assay: Antimalarial activity against Plasmodium berghei ANKA expressing GFP infected in Balb/c mouse assessed as inhibition of parasitemia at 3 mg/kg, po qd administered as single dose on day 3 to 5 of exposure measured on day 6 post exposure by in vivo thomson test relative to control; format: functional
[9] = system: Plasmodium berghei; assay: Antimalarial activity against Plasmodium berghei ANKA expressing GFP infected in Balb/c mouse assessed as inhibition of parasitemia at 1 mg/kg, po qd administered as single dose on day 3 to 5 of exposure measured on day 6 post exposure by in vivo thomson test relative to control; format: functional
[10] = system: Plasmodium berghei; assay: Antimalarial activity against Plasmodium berghei ANKA expressing GFP infected in Balb/c mouse assessed as inhibition of parasitemia at 0.3 mg/kg, po qd administered as single dose on day 3 to 5 of exposure measured on day 6 post exposure by in vivo thomson test relative to control; format: functional
[11] = system: Plasmodium berghei; assay: Antimalarial activity against Plasmodium berghei ANKA expressing GFP infected in Balb/c mouse assessed as mouse survival at 10 mg/kg, po qd administered as single dose on day 3 to 5 of exposure measured on day 6 post exposure by in vivo thomson test relative to control; format: functional
[12] = system: Plasmodium berghei; assay: Antimalarial activity against Plasmodium berghei ANKA expressing GFP infected in Balb/c mouse assessed as mouse survival at 3 mg/kg, po qd administered as single dose on day 3 to 5 of exposure measured on day 6 post exposure by in vivo thomson test relative to control; format: functional
[13] = system: Plasmodium berghei; assay: Antimalarial activity against Plasmodium berghei ANKA expressing GFP infected in Balb/c mouse assessed as mouse survival at 1 mg/kg, po qd administered as single dose on day 3 to 5 of exposure measured on day 6 post exposure by in vivo thomson test relative to control; format: functional
[14] = system: Plasmodium berghei; assay: Antimalarial activity against Plasmodium berghei ANKA expressing GFP infected in Balb/c mouse assessed as mouse survival at 0.3 mg/kg, po qd administered as single dose on day 3 to 5 of exposure measured on day 6 post exposure by in vivo thomson test relative to control; format: functional
[15] = system: Plasmodium berghei; assay: Antimalarial activity against Plasmodium berghei ANKA expressing GFP infected in Balb/c mouse assessed as mouse cured from disease at 10 mg/kg, po qd administered as single dose on day 3 to 5 of exposure measured on day 30 post exposure by in vivo thomson test relative to control; format: functional
[16] = system: Plasmodium berghei; assay: Antimalarial activity against Plasmodium berghei ANKA expressing GFP infected in Balb/c mouse assessed as mouse cured from disease at 3 mg/kg, po qd administered as single dose on day 3 to 5 of exposure measured on day 30 post exposure by in vivo thomson test relative to control; format: functional
[17] = pampa, pH 7.4
Description: Effective permeability of the compound at pH 7.4 by PAMPA

[18] = octanol/water, pH 7.4
[19] = Intrinsic clearance in human liver microsomes at 1 uM by LC-MS analysis; format: ADME; conditions: liver microsomes, read-out: CLH
[20] = system: Plasmodium berghei; assay: Antimalarial activity against Plasmodium berghei ANKA expressing GFP infected in Balb/c mouse assessed as mouse survival at 30 mg/kg, po qd administered as single dose on day 3 to 5 of exposure measured on day 6 post exposure by in vivo thomson test relative to control; format: functional
[21] = system: Liver; assay: Half life in mouse liver microsomes at 1 uM by LC-MS analysis; format: ADME
[22] = system: Plasmodium berghei; assay: Antimalarial activity against Plasmodium berghei ANKA expressing GFP infected in Balb/c mouse assessed as inhibition of parasitemia at 50 mg/kg, po qd administered as single dose on day 3 to 5 of exposure measured on day 6 post exposure by in vivo thomson test relative to control; format: functional
[23] = system: Plasmodium berghei; assay: Antimalarial activity against Plasmodium berghei ANKA expressing GFP infected in Balb/c mouse assessed as mouse survival at 50 mg/kg, po qd administered as single dose on day 3 to 5 of exposure measured on day 6 post exposure by in vivo thomson test relative to control; format: functional
[24] = system: Plasmodium berghei; assay: Antimalarial activity against Plasmodium berghei ANKA expressing GFP infected in Balb/c mouse assessed as mouse cured from disease at 50 mg/kg, po qd administered as single dose on day 3 to 5 of exposure measured on day 30 post exposure by in vivo thomson test relative to control; format: functional
[25] = system: Rattus norvegicus; assay: Half life in Sprague-Dawley rat at 0.15 mg/kg, iv; format: ADME, organism-based; parameters: dose 0.15 mg/kg, route intravenous; conditions: in vivo
[26] = Plasma clearance in Sprague-Dawley rat at 0.15 mg/kg, iv; format: ADME, organism-based; parameters: dose 0.15 mg/kg, route intravenous
[27] = Volume of distribution in Sprague-Dawley rat at 0.15 mg/kg, iv; format: ADME, organism-based; parameters: dose 0.15 mg/kg, route intravenous; conditions: in vivo
[28] = Apparent oral bioavailability in Sprague-Dawley rat at 10 mg/kg; format: ADME, organism-based; conditions: in vivo

SMILES | EC50 [1] | EC50 [2] | Ratio EC50 [3] | EC50 [4] | selectivity ratio [5] | solubility kinetic [6] | inhibition in vivo at 10 mg/kg [7] | inhibition in vivo at 3 mg/kg [8] | inhibition in vivo at 1 mg/kg [9] | survival time at 10 mg/kg [11] | survival time at 3 mg/kg [12] | survival at 1 mg/kg [13] | Activity [15] | Activity [16] | logD [18] | other results
COc1cc2[nH]c(C)c(-c3ccc(-c4ccc(C(F)(F)F)cc4F)nc3)c(=O)c2cc1Cl | 0.602 nM | 1.06 nM | 1.76 | > 21.6 µM | > 20400 | 6 to 12 µM (≈ 2.78 to 5.55 µg/mL) | 95.2% | 96.3% | 94.5% | 23 days | 23 days | 23 days | 100% | 100% | 3.7 | inhibition in vivo at 0.3 mg/kg [10]: 94.3%; survival at 0.3 mg/kg [14]: 23 days; Peff [17]: 1070 ×10⁻⁶ cm/s
COc1cc2[nH]c(C)c(-c3cccnc3)c(=O)c2cc1Cl | 748 nM | 120 nM | 0.16 | > 33.3 µM | > 277 | – | – | – | – | – | – | – | – | – | – | microsomal CLint at 1 µM [19]: 15 µL/min/mg
CCN(CC)Cc1cc(Nc2ccnc3cc(Cl)ccc23)ccc1O [AMODIAQUINE] | – | – | – | – | – | – | – | – | – | – | – | – | – | – | – | survival at 30 mg/kg [20]: 23 days
CCCCCCCc1c(C)nc2cc(OC)ccc2c1O | – | – | – | – | – | – | – | – | – | – | – | – | – | – | – | t1/2 [21]: 7.9 min
COc1cc2[nH]c(C)c(-c3ccc(Oc4ccc(OC(F)(F)F)cc4)cc3F)c(=O)c2cc1Cl | 3.74 nM | 15.2 nM | 4.07 | > 20.2 µM | > 1330 | < 2 µM | 99.5% | 99.3% | 99.3% | 23 days | 23 days | 23 days | 100% | 100% | 3.4 | inhibition in vivo at 50 mg/kg [22]: 99.2%; mouse survival time at 50 mg/kg [23]: 23 days; Activity [24]: 100%; t1/2 [25]: 32 h; clearance [26]: 0.3 mL/min/kg; Vd [27]: 0.7 L/kg; bioavailability [28]: 14%
